# Experimental data as given in ChEMBL document CHEMBL1159167, “Synthesis and biological activity of 5-[(2,5-dihydroxybenzyl)amino]salicylic acid analogs as inhibitors of EGF receptor-associated protein tyrosine kinase” (Bioorg Med Chem Lett, 1997).
# Molecular target: Epidermal growth factor receptor (Homo sapiens, UniProt P00533)
# Test: Displacement of [gamma-32P]-ATP from Epidermal growth factor receptor in A431 cell-free extracts
# Set-up: species or system A-431
# Chain of Epidermal growth factor receptor (P00533 whole entry): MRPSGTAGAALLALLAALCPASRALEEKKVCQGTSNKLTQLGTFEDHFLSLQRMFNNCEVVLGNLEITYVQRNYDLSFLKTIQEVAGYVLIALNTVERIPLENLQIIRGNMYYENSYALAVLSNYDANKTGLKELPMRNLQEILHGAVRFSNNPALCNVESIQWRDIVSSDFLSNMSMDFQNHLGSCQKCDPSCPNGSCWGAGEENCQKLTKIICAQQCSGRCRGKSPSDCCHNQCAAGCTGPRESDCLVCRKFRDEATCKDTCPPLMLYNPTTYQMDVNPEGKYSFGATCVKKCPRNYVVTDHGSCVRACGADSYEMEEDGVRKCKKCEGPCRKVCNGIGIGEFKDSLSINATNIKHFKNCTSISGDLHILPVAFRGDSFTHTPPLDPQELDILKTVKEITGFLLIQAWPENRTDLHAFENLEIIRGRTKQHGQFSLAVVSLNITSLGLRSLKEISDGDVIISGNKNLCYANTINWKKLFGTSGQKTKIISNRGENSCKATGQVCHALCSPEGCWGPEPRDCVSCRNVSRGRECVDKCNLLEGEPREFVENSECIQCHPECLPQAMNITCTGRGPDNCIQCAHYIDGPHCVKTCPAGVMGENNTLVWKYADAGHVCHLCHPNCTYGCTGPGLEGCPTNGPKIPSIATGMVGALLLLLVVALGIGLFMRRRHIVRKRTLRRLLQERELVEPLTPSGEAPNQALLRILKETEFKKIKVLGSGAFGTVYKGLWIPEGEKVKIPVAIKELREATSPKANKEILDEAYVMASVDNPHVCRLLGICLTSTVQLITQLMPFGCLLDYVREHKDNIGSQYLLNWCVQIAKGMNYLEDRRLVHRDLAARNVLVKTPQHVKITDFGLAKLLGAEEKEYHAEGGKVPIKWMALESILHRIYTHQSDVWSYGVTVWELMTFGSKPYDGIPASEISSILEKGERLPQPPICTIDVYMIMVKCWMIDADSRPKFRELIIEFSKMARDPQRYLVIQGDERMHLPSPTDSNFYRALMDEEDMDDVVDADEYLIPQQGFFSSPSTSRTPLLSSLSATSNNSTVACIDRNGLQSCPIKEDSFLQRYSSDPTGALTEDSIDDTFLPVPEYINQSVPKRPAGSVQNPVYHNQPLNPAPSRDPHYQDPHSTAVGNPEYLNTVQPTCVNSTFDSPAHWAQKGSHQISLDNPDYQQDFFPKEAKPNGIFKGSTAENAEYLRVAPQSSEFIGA
row,Compound,IC50
1,CNC(=O)c1cc(NCc2cc(O)ccc2O)ccc1O,9.7 µM
2,CCCCCCNC(=O)c1cc(NCc2cc(O)ccc2O)ccc1O,0.9 µM
3,CCCCCCCCCCCCCCNC(=O)c1cc(NCc2cc(O)ccc2O)ccc1O,27.2 µM
4,O=S(=O)(O)c1cc(NCc2cc(O)ccc2O)ccc1O,10.3 µM
5,O=[N+]([O-])c1cc(NCc2cc(O)ccc2O)ccc1O,5.4 µM
6,Oc1ccc(NCc2cc(O)ccc2O)cc1,41.9 µM
